Among the data in patent US11986532B2 (Arvinas Operations, Inc., priority 2021, dated 2024) are DC50 and Dmax values, retold here.

The target of this experiment is T1, BCL6 (Homo sapiens, UniProt P41182).
T1 construct: endogenous in cells; host or cells: T47D breast cancer epithelial cells
The experiment in a line: Immunofluorescence protocol for high content imaging of BCL6 (degradation) in T47D cells, 3 days compound treatment. Format: cell-based. Particulars: T47D cells, 3 days compound treatment; for DC50: read-out: Mean DC50 (nM)* category; for Dmax: read-out: Mean Dmax (%)** category. Here is the method:
Immunofluorescence Protocol for High Content Imaging of BCL6
T47D cells were seeded in 100 μl volume of RPMI1640-10% FBS in a 96-well black/clear bottom plates for adherent lines (Corning #3904).
Day 1. T47D breast cancer epithelial cells were seeded at a density so that confluence is ˜70-90% at endpoint. Cells were seeded at 7K/0.1 ml/well the morning prior to the addition of exemplary bifunctional degradation compounds.
Day 2. Prepare an 11 point 3-fold serial dilution of exemplary bifunctional compound in DMSO and aliquot an appropriate volume to cell growth media to generate a 2× final concentration of exemplary bifunctional compound. Add an equal volume (0.1 ml) of 2× exemplary bifunctional compound/media mix to previously plated cells, for a final top concentration in aqueous cell growth media of 0.1 or 1 μM. Incubate for 3 days at 37° C., 5% CO2.
Day 5 Immunofluorescence. Discard cell media. Wash wells with 200 μl of room temperature phosphate-buffered saline (PBS). Prepared 4% paraformaldehyde (PFA) from 16% PFA (Electron Microscopy Sciences #15710) using 1×PBS. Fifty μl of 4% PF was added to each well and incubate for 15 minutes at room temperature to fix the cells. The PFA was aspirated and the cells washed twice with PBS (200 μl)).
Prepared 0.1% Triton X-100 in PBS using 10% triton X-100 stock. The cells were permeabilized by adding 100 ul of the 0.1% Triton X-100 in PBS to each well to permeabilize cells and incubating at room temperature for 15 minutes. Cells were washed twice with PBS.
Prepared 3% BSA/PBS (from Thermofisher #37515 Blocker BSA in TBS, 10%), and 100 ul was added to each well. The cells were incubated for at least 1 hour at room temperature.
Prepared 1% BSA/PBS using Blocker BSA/PBS, and the 3% BSA/PBS removed from the wells.
For no primary antibody controls, 50 μl 1% BSA/PBS was added.
Primary antibody (BCL6 Rb Ab, CST-14895, Cell Signaling) was diluted 1:300 in 1% BSA/PBS using Blocker BSA/PBS.
Fifty μl of primary antibody added to all remaining wells (i.e., all wells other than the primary antibody controls) and the cells were incubated overnight at 4° C. with slow orbital movement.
Day 6. Contents of the wells was removed and the cells washed four times with 200 ul PBS. 1% BSA/PBS was prepared using Blocker BSA in PBS.
Diluted secondary antibody goat anti-Rb IgG Alexa-488 1:1000, and cell mask-Alexa-647 1:3000 in 1% BSA/PBS in the same mix. Add 50 μl to each well and incubate at room temperature for 1 hour in the dark.
Cells were washed three times with 200 ul PBS, and then incubated for 10 minutes with 100 ul Hoechst dye at 1 μg/mL (20 mM stock) to stain cell nuclei. Wells were then washed with 200 μl PBS, and 100 ul of PBS was added to each well and the plate covered plate with a plastic opaque cover. Plates were stored at 4° C. and covered in aluminum foil until imaged.
Plates were equilibrated to room temperature prior to reading. The bottom of the plate was wiped with 70% isopropanol immediately prior to imaging.
10×, 4 fields/well, include Top hat smoothing in the analysis protocol.
16% paraformaldehyde: Electron Microscopy Sciences #15710
Hoechst: Thermofisher #62249
Blocker BSA in PBS, 10%: Thermofisher #37515
Blocker BSA in TBS, 10%: Thermofisher #37520
Goat anti-rabbit or mouse AlexaFluor-488: Thermofisher #A11008
Cell mask deep red AlexaFluor-647: Thermofisher #C10046
Wash buffer, PBS: 20×PBS, Thermofisher

By DC50 is commonly meant the midpoint of the concentration-degradation curve. As a reminder, the Dmax is the greatest extent of degradation seen. As for `CNC(=O)COc1cc2cc(Nc3nc(N4CCC(O[C@H]5C[C@H](N6CC[C@H](c7ccc8c(c7)C(=O)N(C7CCC(=O)NC7=O)C8=O)[C@H](F)C6)C5)CC4)ncc3Cl)ccc2n(C(C)C)c1=O` (mixture of isomers) [Compound 118], the DC50 fell in the range of 10 to 50 nM and the Dmax is 50 to 70%.
For the molecule `CNC(=O)COc1cc2cc(Nc3nc(N4CCC(O[C@H]5C[C@H](N6CC[C@H](c7ccc8c(c7)CN(C7CCC(=O)NC7=O)C8=O)[C@H](F)C6)C5)CC4)ncc3Cl)ccc2n(C(C)C)c1=O` (mixture of isomers) [Compound 131], the DC50 is < 10 nM and the Dmax was in the range of 50 to 70%.
For `CNC(=O)COc1cc2cc(Nc3nc(N4CCC(O[C@H]5C[C@H](N6CC[C@H](c7ccc8c(c7)C(=O)N(C7CCC(=O)NC7=O)C8)[C@H](F)C6)C5)CC4)ncc3Cl)ccc2n(C(C)C)c1=O` (mixture of isomers) [Compound 132], in that order: < 10 nM and 50 to 70%.
For `CNC(=O)COc1cc2cc(Nc3nc(N4CCC(O[C@H]5C[C@H](N6C[C@@H](C)N(c7ccc8c(c7)CN(C7CCC(=O)NC7=O)C8=O)[C@H](C)C6)C5)CC4)ncc3Cl)ccc2n(C(C)C)c1=O` (relative stereo) [Compound 179, 2-({6-[(5-chloro-2-{4-[(1r,3r)-3-[(3R*,5R*)-4-[2-(2,6-dioxopiperidin-3-yl)-1-oxo-2,3-dihydro-1H-isoindol-5-yl]-3,5-dimethylpiperazin-1-yl]cyclobutoxy]piperidin-1-yl}pyrimidin-4-yl)amino]-2-oxo-1-(propan-2-yl)-1,2-dihydroquinolin-3-yl}oxy)-N-methylacetamide], in that order: < 10 nM and ≥ 70%.
As for `CNC(=O)COc1cc2cc(Nc3nc(N4CCC(O[C@H]5C[C@H](N6C[C@H](C)N(c7ccc8c(c7)CN(C7CCC(=O)NC7=O)C8=O)[C@@H](C)C6)C5)CC4)ncc3Cl)ccc2n(C(C)C)c1=O` (relative stereo) [Compound 180, 2-({6-[(5-chloro-2-{4-[(1r,3r)-3-[(3R*,5R*)-4-[2-(2,6-dioxopiperidin-3-yl)-1-oxo-2,3-dihydro-1H-isoindol-5-yl]-3,5-dimethylpiperazin-1-yl]cyclobutoxy]piperidin-1-yl}pyrimidin-4-yl)amino]-2-ox0-1-(propan-2-yl)-1,2-dihydroquinolin-3-yl}oxy)-N-methylacetamide], the DC50 is < 10 nM and the Dmax was ≥ 70%.
Regarding `CNC(=O)COc1cc2cc(Nc3nc(N4CCC(OC5CN([C@H]6CC[C@H](c7ccc8c(c7)CN(C7CCC(=O)NC7=O)C8=O)CC6)C5)CC4)ncc3Cl)ccc2n(C(C)C)c1=O` (single isomer, unassigned) [Compound 165, 2-((6-((5-chloro-2-(4-((1-((1r,4r)-4-(2-(2,6-dioxopiperidin-3-yl)-1-oxoisoindolin-5-yl)cyclohexyl)azetidin-3-yl)oxy)piperidin-1-yl)pyrimidin-4-yl)amino)-1-isopropyl-2-oxo-1,2-dihydroquinolin-3-yl)oxy)-N-methylacetamide], the DC50 was < 10 nM and the Dmax lay within 50 to 70%.
On the same counts, the results for `CNC(=O)COc1cc2cc(Nc3nc(N4CCC(OC5CN([C@H]6CC[C@@H](c7ccc8c(c7)CN(C7CCC(=O)NC7=O)C8=O)CC6)C5)CC4)ncc3Cl)ccc2n(C(C)C)c1=O` (single isomer, unassigned) [Compound 166, 2-[[6-[[5-chloro-2-[4-[1-[4-[2-(2,6-dioxo-3-piperidyl)-1-oxo-isoindolin-5-yl]cyclohexyl]azetidin-3-yl]oxy-1-piperidyl]pyrimidin-4-yl]amino]-1-isopropyl-2-oxo-3-quinolyl]oxy]-N-methyl-acetamide] are < 10 nM and 50 to 70%.
For `CNC(=O)COc1cc2cc(Nc3nc(N4CCC(O[C@H]5C[C@H](N6CCN(c7ccc8c(n7)C(C)N(C7CCC(=O)NC7=O)C8=O)[C@H](C)C6)C5)CC4)ncc3Cl)ccc2n(C(C)C)c1=O` (stereo in doubt) [Compound 203, 2-({6-[(5-chloro-2-{4-[(1r,3r)-3-[(3R)-4-[6-(2,6-dioxopiperidin-3-yl)-7-methyl-5-oxo-5H,6H, 7H-pyrrolo[3,4-b]pyridin-2-yl]-3-methylpiperazin-1-yl]cyclobutoxy]piperidin-1-yl}pyrimidin-4-yl)amino]-2-oxo-1-(propan-2-yl)-1,2-dihydroquinolin-3-yl}oxy)-N-methylacetamide], in that order: < 10 nM and ≥ 70%.
As to `CNC(=O)COc1cc2cc(Nc3nc(N4CCC(CN5CC[C@]6(CCN(c7ccc8c(c7)CN([C@H]7CCC(=O)NC7=O)C8=O)C6)C5)CC4)ncc3Cl)ccc2n(C(C)C)c1=O` [Compound 1, 2-[(6-{[5-chloro-2-(4-{[(5S)-7-{2-[(3S)-2,6-dioxopiperidin-3-yl]-1-oxo-2,3-dihydro-1H-isoindol-5-yl}-2,7-diazaspiro[4.4]nonan-2-yl]methyl}piperidin-1-yl)pyrimidin-4-yl]amino}-2-oxo-1-(propan-2-yl)-1,2-dihydroquinolin-3-yl)oxy]-N-methylacetamide], the DC50 was < 10 nM and the Dmax is 50 to 70%.
In the case of `CNC(=O)COc1cc2cc(Nc3nc(N4CCC(CN5CC[C@]6(CCN(c7ccc8c(c7)CN([C@@H]7CCC(=O)NC7=O)C8=O)C6)C5)CC4)ncc3Cl)ccc2n(C(C)C)c1=O` [Compound 2, 2-[(6-{[5-chloro-2-(4-{[(5S)-7-{2-[(3R)-2,6-dioxopiperidin-3-yl]-1-oxo-2,3-dihydro-1H-isoindol-5-yl}-2,7-diazaspiro[4.4]nonan-2-yl]methyl}piperidin-1-yl)pyrimidin-4-yl]amino}-2-oxo-1-(propan-2-yl)-1,2-dihydroquinolin-3-yl)oxy]-N-methylacetamide], the DC50 was < 10 nM and the Dmax was ≥ 70%.
Regarding `CNC(=O)COc1cc2cc(Nc3nc(N4CCC5(CCN(CC6CCN(c7ccc8c(c7)CN(C7CCC(=O)NC7=O)C8=O)CC6)C5)C4)ncc3Cl)ccc2n(C(C)C)c1=O` (centres unmarked) [Compound 3, 2-{[6-({5-chloro-2-[7-({1-[2-(2,6-dioxopiperidin-3-yl)-1-oxo-2,3-dihydro-1H-isoindol-5-yl]piperidin-4-yl}methyl)-2,7-diazaspiro[4.4]nonan-2-yl]pyrimidin-4-yl}amino)-2-oxo-1-(propan-2-yl)-1,2-dihydroquinolin-3-yl]oxy}-N-methylacetamide], the DC50 was < 10 nM and the Dmax fell in the range of 50 to 70%.
As to `CNC(=O)COc1cc2cc(Nc3nc(N4CCC5(CCN(CC6CCN(c7ccc8c(c7)C(=O)N(C7CCC(=O)NC7=O)C8=O)CC6)C5)C4)ncc3Cl)ccc2n(C(C)C)c1=O` (centres unmarked) [Compound 4, 2-{[6-({5-chloro-2-[7-({1-[2-(2,6-dioxopiperidin-3-yl)-1,3-dioxo-2,3-dihydro-1H-isoindol-5-yl]piperidin-4-yl}methyl)-2,7-diazaspiro[4.4]nonan-2-yl]pyrimidin-4-yl}amino)-2-oxo-1-(propan-2-yl)-1,2-dihydroquinolin-3-yl]oxy}-N-methylacetamide], the DC50 fell in the range of 10 to 50 nM and the Dmax is < 50%.
Consider `CCn1c(=O)c(OCC(=O)NC)cc2cc(Nc3nc(N4CCC(O[C@H]5C[C@H](N6CCC(c7ccc8c(c7)C(=O)N(C7CCC(=O)NC7=O)C8=O)CC6)C5)CC4)ncc3Cl)ccc21` (some centres unmarked) [Compound 5, 2-[[6-[[5-chloro-2-[4-[3-[4-[2-(2,6-dioxo-3-piperidyl)-1,3-dioxo-isoindolin-5-yl]-1-piperidyl]cyclobutoxy]-1-piperidyl]pyrimidin-4-yl]amino]-1-ethyl-2-oxo-3-quinolyl]oxy]-N-methyl-acetamide], for which the DC50 was < 10 nM and the Dmax is ≥ 70%.
